According to US11370798B2 (Vertex Pharmaceuticals Incorporated, priority 2012, dated 2022):

tested on: HCT116 colorectal cancer cells; assay: Cisplatin sensitization assay (96 h cell viability MTS); format: cell-based; settings: compound and Cisplatin added simultaneously, Cisplatin sensitization value;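 further: Test-compound concentration that lowers the Cisplatin IC50 by a set fold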
Outline: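 Viability read by MTS (1 h at 37° C) after 96 h co-exposure at 37° C, 5% CO2. Test compound and cisplatin were dosed simultaneously in a full concentration matrix, each 2-fold serially diluted from 10 μM final; sensitization values binned in μM.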

SMILES | Cisplatin Sensitization Assay
CN1CCN(c2c(F)cncc2NC(=O)c2c(N)nn3cc(F)cnc23)CC1 [I-N-15, 2-amino-6-fluoro-N-(5-fluoro-4-(4-methylpiperazin-1-yl)pyridin-3-yl)pyrazolo[1,5-a]pyrimidine-3-carboxamide] | +++ (Cisplatin sensitization value of <0.02 μM)
Cc1cncc(NC(=O)c2c(N)nn3cc(F)cnc23)c1N1CCN(C2COC2)CC1 [I-N-16, 2-amino-6-fluoro-N-(5-methyl-4-(4-(oxetan-3-yl)piperazin-1-yl)pyridin-3-yl)pyrazolo[1,5-a]pyrimidine-3-carboxamide] | +++ (Cisplatin sensitization value of <0.02 μM)
CCN1CCN(c2ccncc2NC(=O)c2c(N)nn3cc(F)cnc23)CC1 [I-N-17, 2-amino-N-(4-(4-ethylpiperazin-1-yl)pyridin-3-yl)-6-fluoropyrazolo[1,5-a]pyrimidine-3-carboxamide] | +++ (Cisplatin sensitization value of <0.02 μM)
Nc1nn2cc(F)cnc2c1C(=O)Nc1cnccc1N1CCN2CCC1CC2 [I-N-18, N-(4-(1,4-diazabicyclo[3.2.2]nonan-4-yl)pyridin-3-yl)-2-amino-6-fluoropyrazolo[1,5-a]pyrimidine-3-carboxamide] | ++ (Cisplatin sensitization value>0.02 μM but <0.2 μM)
Nc1nn2cc(F)cnc2c1C(=O)Nc1cnccc1N1CCN(CC(F)(F)F)CC1 [I-N-20, 2-amino-6-fluoro-N-(4-(4-(2,2,2-trifluoroethyl)piperazin-1-yl)pyridin-3-yl)pyrazolo[1,5-a]pyrimidine-3-carboxamide] | +++ (Cisplatin sensitization value of <0.02 μM)
Nc1nn2cc(F)cnc2c1C(=O)Nc1cnccc1N1CCN2CCC[C@H]2C1 [I-N-21, (S)-2-amino-6-fluoro-N-(4-(hexahydropyrrolo[1,2-a]pyrazin-2(1H)-yl)pyridin-3-yl)pyrazolo[1,5-a]pyrimidine-3-carboxamide] | +++ (Cisplatin sensitization value of <0.02 μM)
C[C@@H]1CN(C2COC2)CCN1c1ccncc1NC(=O)c1c(N)nn2cc(F)cnc12 [I-N-23, (R)-2-amino-6-fluoro-N-(4-(2-methyl-4-(oxetan-3-yl)piperazin-1-yl)pyridin-3-yl)pyrazolo[1,5-a]pyrimidine-3-carboxamide] | +++ (Cisplatin sensitization value of <0.02 μM)
C[C@H]1CN(C2COC2)CCN1c1ccncc1NC(=O)c1c(N)nn2cc(F)cnc12 [I-N-24, (S)-2-amino-6-fluoro-N-(4-(2-methyl-4-(oxetan-3-yl)piperazin-1-yl)pyridin-3-yl)pyrazolo[1,5-a]pyrimidine-3-carboxamide] | +++ (Cisplatin sensitization value of <0.02 μM)
Nc1nn2cc(F)cnc2c1C(=O)Nc1cnccc1-n1cccn1 [I-N-26, N-(4-(1H-pyrazol-1-yl)pyridin-3-yl)-2-amino-6-fluoropyrazolo[1,5-a]pyrimidine-3-carboxamide] | + (Cisplatin sensitization value>0.2 μM but <5 μM)
Nc1nn2cc(F)cnc2c1C(=O)Nc1cnccc1-n1cnc(C(F)(F)F)c1 [I-N-27, 2-amino-6-fluoro-N-(4-(4-(trifluoromethyl)-1H-imidazol-1-yl)pyridin-3-yl)pyrazolo[1,5-a]pyrimidine-3-carboxamide] | ++ (Cisplatin sensitization value>0.02 μM but <0.2 μM)
Cc1nccn1-c1ccncc1NC(=O)c1c(N)nn2cc(F)cnc12 [I-N-28, 2-amino-6-fluoro-N-(4-(2-methyl-1H-imidazol-1-yl)pyridin-3-yl)pyrazolo[1,5-a]pyrimidine-3-carboxamide] | +++ (Cisplatin sensitization value of <0.02 μM)
Nc1nn2cc(Cl)cnc2c1C(=O)Nc1cnccc1-n1ccnc1 [I-N-29, N-(4-(1H-imidazol-1-yl)pyridin-3-yl)-2-amino-6-chloropyrazolo[1,5-a]pyrimidine-3-carboxamide] | ++ (Cisplatin sensitization value>0.02 μM but <0.2 μM)
Cc1nc(C(F)(F)F)cn1-c1ccncc1NC(=O)c1c(N)nn2cc(F)cnc12 [I-N-30, 2-amino-6-fluoro-N-(4-(2-methyl-4-(trifluoromethyl)-1H-imidazol-1-yl)pyridin-3-yl)pyrazolo[1,5-a]pyrimidine-3-carboxamide] | ++ (Cisplatin sensitization value>0.02 μM but <0.2 μM)
Nc1nn2cc(F)cnc2c1C(=O)Nc1cnccc1N1CCN(C2COC2)C2CC21 (stereo not shown) [I-N-31, 2-amino-6-fluoro-N-(4-(5-(oxetan-3-yl)-2,5-diazabicyclo[4.1.0]heptan-2-yl)pyridin-3-yl)pyrazolo[1,5-a]pyrimidine-3-carboxamide] | + (Cisplatin sensitization value>0.2 μM but <5 μM)
Nc1nn2cc(F)cnc2c1C(=O)Nc1cncc(C2CC2)c1N1CCN(C2COC2)CC1 [I-N-32, 2-amino-N-(5-cyclopropyl-4-(4-(oxetan-3-yl)piperazin-1-yl)pyridin-3-yl)-6-fluoropyrazolo[1,5-a]pyrimidine-3-carboxamide] | ++ (Cisplatin sensitization value>0.02 μM but <0.2 μM)
Nc1nn2cc(F)cnc2c1C(=O)Nc1cnccc1N1CCN(C2CC2)CC1 [I-N-33, 2-amino-N-(4-(4-cyclopropylpiperazin-1-yl)pyridin-3-yl)-6-fluoropyrazolo[1,5-a]pyrimidine-3-carboxamide] | + (Cisplatin sensitization value>0.2 μM but <5 μM)
CC(C)(C)N1CCN(c2ccncc2NC(=O)c2c(N)nn3cc(Cl)cnc23)CC1 [I-N-34, 2-amino-N-(4-(4-(tert-butyl)piperazin-1-yl)pyridin-3-yl)-6-chloropyrazolo[1,5-a]pyrimidine-3-carboxamide] | ++ (Cisplatin sensitization value>0.02 μM but <0.2 μM)
CN(C)[C@H]1CCN(c2ccncc2NC(=O)c2c(N)nn3cc(Cl)cnc23)C[C@@H]1O [I-N-35, 2-amino-6-chloro-N-(4-((3S,4S)-4-(dimethylamino)-3-hydroxypiperidin-1-yl)pyridin-3-yl)pyrazolo[1,5-a]pyrimidine-3-carboxamide] | + (Cisplatin sensitization value>0.2 μM but <5 μM)
CN(C)CC1(O)CCN(c2ccncc2NC(=O)c2c(N)nn3cc(Cl)cnc23)CC1 [I-N-36, 2-amino-6-chloro-N-(4-(4-((dimethylamino)methyl)-4-hydroxypiperidin-1-yl)pyridin-3-yl)pyrazolo[1,5-a]pyrimidine-3-carboxamide] | ++ (Cisplatin sensitization value>0.02 μM but <0.2 μM)
CN(C)C1CCN(c2ccncc2NC(=O)c2c(N)nn3cc(Cl)cnc23)CC1 [I-N-37, 2-amino-6-chloro-N-(4-(4-(dimethylamino)piperidin-1-yl)pyridin-3-yl)pyrazolo[1,5-a]pyrimidine-3-carboxamide] | ++ (Cisplatin sensitization value>0.02 μM but <0.2 μM)
Nc1nn2cc(F)cnc2c1C(=O)Nc1cncc(Cl)c1N1CCN2CCN(C3COC3)CC2C1 (stereo not shown) [I-N-38, 2-amino-N-(5-chloro-4-(8-(oxetan-3-yl)hexahydro-1H-pyrazino[1,2-a]pyrazin-2(6H)-yl)pyridin-3-yl)-6-fluoropyrazolo[1,5-a]pyrimidine-3-carboxamide] | ++ (Cisplatin sensitization value>0.02 μM but <0.2 μM)
CC(C)N1CCN(c2ccncc2NC(=O)c2c(N)nn3cc(Cl)cnc23)CC1 [I-N-39, 2-amino-6-chloro-N-(4-(4-isopropylpiperazin-1-yl)pyridin-3-yl)pyrazolo[1,5-a]pyrimidine-3-carboxamide] | ++ (Cisplatin sensitization value>0.02 μM but <0.2 μM)
